Assay results: patent publication US9000027B2, “Chk1 suppresses a caspase-2 apoptotic response to DNA damage that bypasses p53, bcl-2 and caspase-3” (Dana-Farber Cancer Institute, Inc., priority 2008, dated 2015)

What was measured:
[1] = system: HeLa cells; assay: Cell viability assay (CellTiter-Glo) after IR; format: cell-based, human; settings: 10 Gy, 72 hpIR
Description: For the cell viability assay, Tg(BCL2)^− and Tg(BCL2)^+ H218 cells were seeded into black 96-well plates (BD Bioscience) at a density of 1000 cells per well on day 1. 24-well sets were treated with DMSO or Gö6976 (1 μM), and plates were exposed to 0 or 10 Gy IR on day 2. After 72 hr, cellular viability was measured with the CellTiter-Glo Luminescent Cell Viability Assay kit (Promega) according to the manufacturer's instructions. Cellular viability for each well was calculated as a percentage of the mean viability of DMSO-treated, non-irradiated cells. The mean cellular viability and SEM were calculated and plotted with GraphPad Prism version 3 (GraphPad Software, San Diego Calif., USA). Each viability experiment was performed twice.

[2] = system: HeLa cells; assay: Clonogenic survival assay after IR; format: cell-based, human; settings: Gö6976 500 nM from 24 hbIR
Description: Clonogenic assays were performed as described (Franken et al., 2006). Briefly, the cells were plated in 6-cm dishes, treated with Gö6976 followed by IR and cultured for 2 weeks. The medium was then removed, and the cells were rinsed by PBS and incubated with a mixture of 6.0% glutaraldehyde and 0.5% crystal violet (Sigma-Aldrich, St Louis, Mo., USA) for 30 min at room temperature. The dishes were washed with water, and colonies consisting of at least 50 cells were counted.

[3] = system: ATM; assay: Western blot of ATM activity (Chk2 phosphorylation at Thr68) in HeLa cells; format: cell-based, human; settings: 10 Gy IR+Gö6976 1 μM
Description: Protein extract (5-60 μg) was added to 4× gel loading buffer and 10× denaturing solution (Invitrogen) in appropriate proportions, and samples were incubated at 70° C. for 10 min. Samples were run at 200V for 1 hr on a 4-12% Bis-tris gradient gel (Invitrogen). After electrophoresis, samples were transferred for 1.5 hr (350 mA) to a Nitrocellulose membrane (Millipore) using a submerged transfer apparatus (Bio-Rad). Membranes were then blocked with 5% milk in Tris-buffered saline with 0.1% tween (TBST) and probed overnight at 4° C. with the following antibodies: anti-zebrafish Chk1 (diluted 1:200), anti-zebrafish Chk2 (1:200), anti-P-Cdc2 (1:1000), anti-actin (1:2000), anti-human ATR (1:500) and Stressgen anti-human-caspase-3 (1:500) for zebrafish immunoblots; and anti-caspase-2 (1:200), Upstate anti-caspase-3 (1:500), anti-P-ATM (1:500), anti-ATM (1:500), Santa Cruz anti-human Chk1 (1:1000), Santa Cruz anti-human Chk2 (1:1000), anti-P-Chk1 (1:500), anti-P-Chk2 (1:500), anti-P-H2A.X (1:2000), anti-P-cdc25C (1:1000), anti-P-HSP27 (1:1000), anti-HSP27 (1:1000), anti-P-Cdc2 (1:1000), anti-p53 (1:1000) and anti-GAPDH (1:5000) for immunoblots of human tumor cell lysates. Detailed references for all primary antibodies can be found in the ‘Antibodies’ section elsewhere herein.

[4] = system: p53^e7/e7;chk1^MO cells grafted into p53^e7/e7 hosts; assay: Blastula-cell transplantation (genetic chimeras), TUNEL after IR; format: in vivo, zebrafish; settings: 12.5 Gy, n=102
From the text: To determine whether the Chk1-antagonized pathway functions cell autonomously or non-cell autonomously, we generated genetic chimeras (see cell transplantation procedure in FIG. 3D and assay validation in FIG. 14). While p53^e7/e7;chk1^MO cells grafted into p53^e7/e7 hosts often stained TUNEL-positive after IR (39%, n=102), neighboring host cells were virtually never seen that stained TUNEL-positive (FIG. 3E, upper panels). In the reciprocal experiment, p53^e7/e7 cells transplanted into p53^e7/e7;chk1^MO hosts remained TUNEL-negative within an otherwise TUNEL-positive environment (FIG. 3E, lower panels). Therefore, IR-induced TUNEL reactivity of transplanted cells strictly depends on Chk1 dosage, occurs irrespective of the cellular environment, and has very little, if any, influence on neighboring cells. The Chk1-suppressed apoptotic pathway thus functions in a cell-autonomous manner.
Zebrafish embryos were fixed in 4% paraformaldehyde (PFA) overnight at 4° C. and subsequently stored in methanol at −20° C. for at least 2 hr. After rehydration at room temperature in PBST (1×PBS, 0.1% Tween-20), embryos were treated with proteinase K (10 μg/mL) in PBS for 15 min, followed by a 20-min postfix in 4% PFA at room temperature. […] Tagged DNA was detected with sheep anti-digoxigenin-fluorescein or sheep anti-digoxigenin-rhodamine conjugated Fab fragments. […]

| Compound | radiosensitizing effect (cell killing) ([1]; Gö6976 1 μM) [%] | radiosensitization of HeLa cells ([1]; regardless of BCL2 transgene) [fold] | clonogenic radiosensitization ([2]; 2 Gy) | reduction in number of colonies ([2]; 3.2 Gy, colonies counted 14 dpIR) [%] | phosphorylated Chk2 at Thr68 (readout for ATM activity) [3] | grafted cells staining TUNEL-positive after IR [4] [%] |
| --- | --- | --- | --- | --- | --- | --- |
| Cn1c2ccccc2c2c3c(c4c5ccccc5n(CCC#N)c4c21)CNC3=O [Gö6976] | ~50 | ~2 | inability of Gö6976 to significantly radiosensitize the cells | 50 | synergistic increases |  |
| chk1 MO: morpholino against zebrafish chk1 atg/5'UTR, aggcacagccattatgcaatcttcg (SEQ ID NO: 11) (AGGCACAGCCATTATGCAATCTTCG; all phosphorodiamidate morpholino (PMO)) |  |  |  |  |  | 39 |
